Assay results published in US20250129095A1, “ANNULATED 2-AMINO-3-CYANO THIOPHENES AND DERIVATIVES FOR THE TREATMENT OF CANCER” (Boehringer Ingelheim Int'l GmbH Corp., priority 2021, published 2025).

Columns and labels:
LOVO cells = assay: LOVO CTG proliferation assay (120 h) (CRC, G13D); format: cell-based; conditions: Homo sapiens
Method: LOVO cells (ATCC CCL-229) are dispensed into 384-well plates, flat and clear bottom (Greiner, PNr. 781091) at a density of 1000 cells per well in 60 μL DMEM (Sigma D6429)+10% Fetal Calf Serum (HyClone, PNr.: SH30084.03) and incubated at 37° C. in a CO2 incubator overnight. The next day, compounds (10 mM stock in DMSO) are added with the ECHO acoustic liquid handler system (Beckman Coulter), including DMSO controls. Plates are incubated for 120 h, and cell viability is measured using CellTiter-Glo luminescent cell viability reagent (Promega product code G7570). Viability (stated as percent of control) is defined as relative luminescence units RLU of each well divided by the RLU of cells in DMS0 controls. IC50 values are determined from viability measurements by non-linear regression using a four-parameter model.

KRAS (G12C)::SOS1 = target: T1, KRAS (G12C)::SOS1 (Homo sapiens, UniProt P01116, C118S/C51S/C80L/G12C); assay: KRAS::SOS1 AlphaScreen binding assay, KRAS G12C; conditions: read-out: KRASG12C IC50
T1 construct: KRAS (G12C) 1-169, N-terminal 6His-tag for purification, cleaved off; 6His-tag (N, cleaved yes); made in house
Excerpt: This assay can be used to examine the potency with which compounds according to the invention binding to (mutated) KRAS inhibit the protein-protein interaction between SOS1 and (mutated) KRAS e.g., KRAS WT, KRAS G12C, KRAS G12D, KRAS G12V, KRAS G13D. […] Low IC50 values in this assay setting are indicative of strong inhibition of protein-protein interaction between SOS1 and KRAS:
These assays measure the inhibitory effect of compounds on KRAS mutant protein-protein interactions using the Alpha Screen technology by Perkin Elmer
The following (mutant) enzyme forms of KRAS and interacting proteins are used in these assays at the given concentrations: • KRAS (G12D) 1-169, N-terminal 6His-tag, C-terminal avi-tag (Xtal BioStructures, Inc.); final assay concentration 10 nM and SOS1 564-1049, N-terminal 229 GST-tag, TEV cleavage site (Viva Biotech Ltd); final assay concentration 5 nM; • KRAS (G12C) 1-169, N-terminal 6His-tag for purification, cleaved off, C-terminal avi-tag, biotinylated, mutations: C51S, C80L, C118S (in house); final assay concentration 7.5 nM and SOS1 564-1049, N-terminal 229 GST-tag, TEV cleavage site (Viva Biotech Ltd); final assay concentration 5 nM; • KRAS (G12V) 1-169, N-terminal 6His-tag for purification, cleaved off, C-terminal avi-tag, biotinylated, TEV cleavage site, mutation: C118S, GDP loaded (in house); final assay concentration 10 nM and SOS1 564-1049, N-terminal 229 GST-tag, TEV cleavage site (Viva Biotech Ltd); final assay concentration 10 nM; • KRAS (G13D) 1-169, N-terminal 6His-tag for purification, cleaved off, C-terminal avi-tag, biotinylated, TEV cleavage site, mutation: C118S, GDP loaded (in house); final assay concentration 10 nM and SOS1 564-1049, N-terminal 229 GST-tag, TEV cleavage site (Viva Biotech Ltd); final assay concentration 10 nM; • KRAS (WT) 1-169, N-terminal 6His-tag for purification, cleaved off, C-terminal avi-tag, biotinylated, TEV cleavage site, mutation: C118S, GDP loaded (in house); final assay concentration 10 nM and SOS1 564-1049, N-terminal 229 GST-tag, TEV cleavage site (Viva Biotech Ltd); final assay concentration 10 nM.
Test compounds dissolved in DMSO are dispensed onto assay plates (Proxiplate 384 PLUS, white, PerkinElmer; 6008289) using an Access Labcyte Workstation with the Labcyte Echo 55×. For the chosen highest assay concentration of 100 μM, 150 nL of compound solution are transferred from a 10 mM DMSO compound stock solution. A series of eleven fivefold dilutions per compound are transferred to the assay plate, compound dilutions are tested in duplicates. DMSO are added as backfill to a total volume of 150 nL.
The assays run on a fully automated robotic system in a darkened room below 100 Lux. To 150 nl of compound dilution 10 μl of a mix including KRAS mutant protein, SOS1 (final assay concentrations see above) and GDP nucleotide (Sigma G7127; final assay concentration 10 μM) in assay buffer (1×PBS, 0.1% BSA, 0.05% Tween 20) are added into columns 1-24.
After 30 minutes incubation time 5 μl of Alpha Screen bead mix in assay buffer are added into columns 1-23. Bead mix consists of AlphaLISA Glutathione Acceptor Beads (PerkinElmer, Cat No AL109) and AlphaScreen Streptavidin Donor Beads (PerkinElmer Cat No 6760002) in assay buffer at a final assay concentration of 10 μg/ml each.
Plates are kept at room temperature in a darkened incubator. After an additional 60 minutes incubation time the signal is measured in a PerkinElmer Envision HTS Multilabel Reader using the AlphaScreen specs from PerkinElmer.
Each plate contains up to 16 wells of a negative control depending on the dilution procedure (platewise or serial) (DMSO instead of test compound; with KRAS mutant::SOS1 GDP mix and bead mix; column 23) and 16wells of a positive control (DMSO instead of test compound; with KRAS mutant::SOS1 GDP mix w/o bead mix; column 24).
As internal control known inhibitors of KRAS mutant::SOS1 interaction can be measured on each compound plate. […]

T1 sequence (P01116 1-169 isoform P01116-2 G12C/C51S/C80L/C118S): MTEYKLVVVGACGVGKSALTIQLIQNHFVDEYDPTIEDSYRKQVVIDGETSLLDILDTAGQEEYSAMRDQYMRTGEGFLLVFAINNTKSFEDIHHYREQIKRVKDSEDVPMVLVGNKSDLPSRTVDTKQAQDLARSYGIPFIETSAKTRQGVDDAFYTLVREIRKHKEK

Row | SMILES | IC50 (LOVO cells) | IC50 (KRAS (G12C)::SOS1)
1 | C[C@H](Oc1cc(O[C@H]2CNC(C)(C)C2)nc(-c2noc3c2CCC[C@@]32CCCc3sc(N)c(C#N)c32)n1)[C@@H]1CCCN1C (single isomer, unassigned) [II-8] | 501 nM | 2 nM
2 | C[C@H](Oc1cc(Oc2nccs2)nc(-c2onc3c2CCC[C@@]32CCCc3sc(N)c(C#N)c32)n1)[C@@H]1CCCN1C [Example I-1] | 54 nM | 1 nM
3 | C[C@H](Oc1cc(Oc2cccnc2)nc(-c2onc3c2CCC[C@@]32CCCc3sc(N)c(C#N)c32)n1)[C@@H]1CCCN1C [Example I-2] | 32 nM | 1 nM
4 | C[C@H](Oc1cc(Oc2cncnc2)nc(-c2onc3c2CCC[C@@]32CCCc3sc(N)c(C#N)c32)n1)[C@@H]1CCCN1C [Example I-3] | 35 nM | 1 nM
5 | C[C@H](Oc1cc(N[C@H]2CCOC2)nc(-c2onc3c2CCC[C@@]32CCCc3sc(N)c(C#N)c32)n1)[C@@H]1CCCN1C [Example I-4] | 575 nM | 3 nM
6 | COC[C@H](C)Nc1cc(O[C@@H](C)[C@@H]2CCCN2C)nc(-c2onc3c2CCC[C@@]32CCCc3sc(N)c(C#N)c32)n1 [Example I-5] |  | 5 nM
7 | C[C@H](Oc1cc(Sc2ncccn2)nc(-c2onc3c2CCC[C@@]32CCCc3sc(N)c(C#N)c32)n1)[C@@H]1CCCN1C [Example I-7] | 3240 nM | 5 nM
8 | C[C@H](Oc1cc(OCC2(N(C)C)COC2)nc(-c2onc3c2CCC[C@@]32CCCc3sc(N)c(C#N)c32)n1)[C@@H]1CCCN1C [Example I-8] | 27 nM | 2 nM
9 | C[C@H](Oc1cc(O[C@H]2CCOC2)nc(-c2noc3c2CCC[C@@]32CCCc3sc(N)c(C#N)c32)n1)[C@@H]1CCCN1C [II-4] | 93 nM | 2 nM
10 | COCCOc1cc(O[C@@H](C)[C@@H]2CCCN2C)nc(-c2noc3c2CCC[C@@]32CCCc3sc(N)c(C#N)c32)n1 [II-5] | 117 nM | 2 nM
11 | C[C@H](Oc1cc(O[C@@H]2CNC2(C)C)nc(-c2noc3c2CCC[C@@]32CCCc3sc(N)c(C#N)c32)n1)[C@@H]1CCCN1C [II-9] | 99 nM | 2 nM
12 | C[C@H](Oc1cc(O[C@H]2CN(C)C(C)(C)C2)nc(-c2noc3c2CCC[C@@]32CCCc3sc(N)c(C#N)c32)n1)[C@@H]1CCCN1C [II-19] | 344 nM | 4 nM
13 | C[C@H](Oc1cc(N(C)CCN(C)C)nc(-c2noc3c2CCC[C@@]32CCCc3sc(N)c(C#N)c32)n1)[C@@H]1CCCN1C [II-20] | 139 nM | 10 nM
14 | C[C@H](Oc1cc(OCC2(N(C)C)CC2)nc(-c2noc3c2CCC[C@@]32CCCc3sc(N)c(C#N)c32)n1)[C@@H]1CCCN1C [II-21] | 186 nM | 3 nM
15 | C[C@H](Oc1cc(OCC2(N(C)C)COC2)nc(-c2noc3c2CCC[C@@]32CCCc3sc(N)c(C#N)c32)n1)[C@@H]1CCCN1C [II-22] | 39 nM | 2 nM
16 | COc1c(OCC2(N(C)C)COC2)nc(-c2noc3c2CCC[C@@]32CCCc3sc(N)c(C#N)c32)nc1O[C@@H](C)[C@@H]1CCCN1C [II-25] | 35 nM | 2 nM
17 | C[C@H]1CN(C)CCCN1c1cc(O[C@@H]2CNC2(C)C)nc(-c2noc3c2CCC[C@@]32CCCc3sc(N)c(C#N)c32)n1 [II-28] | 3380 nM | 6 nM
18 | C[C@H](Oc1cc(O[C@@H]2CNC[C@@H]2F)nc(-c2noc3c2CCC[C@@]32CCCc3sc(N)c(C#N)c32)n1)[C@@H]1CCCN1C [II-29] | 216 nM | 2 nM
19 | CO[C@@H]1C[C@@H]([C@H](C)Oc2cc(O[C@@H]3CNC3(C)C)nc(-c3noc4c3CCC[C@@]43CCCc4sc(N)c(C#N)c43)n2)N(C)C1 [II-30] | 130 nM | 1 nM
20 | C[C@H](Oc1cc(O[C@@H]2CNC2(C)C)nc(-c2noc3c2CCC[C@@]32CCCc3sc(N)c(C#N)c32)n1)[C@@H]1C[C@@H](F)CN1C [II-31] | 202 nM | 1 nM

Now from value to compound:

Row | IC50 (LOVO cells) | IC50 (KRAS (G12C)::SOS1) | SMILES
21 | 595 nM | 3 nM | C[C@H](Oc1cc(Nc2ccccn2)nc(-c2onc3c2CCC[C@@]32CCCc3sc(N)c(C#N)c32)n1)[C@@H]1CCCN1C [Example I-6]
22 | 433 nM | 1 nM | C[C@H](Oc1cc(Oc2cncnc2)nc(-c2noc3c2CCC[C@@]32CCCc3sc(N)c(C#N)c32)n1)[C@@H]1CCCN1C [II-1]
23 | 53 nM | 2 nM | C[C@H](Oc1cc(Oc2nccs2)nc(-c2noc3c2CCC[C@@]32CCCc3sc(N)c(C#N)c32)n1)[C@@H]1CCCN1C [II-2]
24 | 102 nM | 2 nM | C[C@H](Oc1cc(Oc2ccon2)nc(-c2noc3c2CCC[C@@]32CCCc3sc(N)c(C#N)c32)n1)[C@@H]1CCCN1C [II-3]
25 | 781 nM | 1 nM | C[C@H](Oc1cc(OCCO)nc(-c2noc3c2CCC[C@@]32CCCc3sc(N)c(C#N)c32)n1)[C@@H]1CCCN1C [II-6]
26 | 15 nM | 2 nM | C[C@H](Oc1cc(Oc2cnccn2)nc(-c2noc3c2CCC[C@@]32CCCc3sc(N)c(C#N)c32)n1)[C@@H]1CCCN1C [II-7]
27 | 4080 nM | 2 nM | C[C@H](Oc1cc(N(C)C)nc(-c2noc3c2CCC[C@@]32CCCc3sc(N)c(C#N)c32)n1)[C@@H]1CCCN1C [II-10]
28 | 568 nM | 2 nM | C[C@H](Oc1cc(NCC2COC2)nc(-c2noc3c2CCC[C@@]32CCCc3sc(N)c(C#N)c32)n1)[C@@H]1CCCN1C [II-11]
29 | 1130 nM | 4 nM | C[C@H](Oc1cc(Nc2nccs2)nc(-c2noc3c2CCC[C@@]32CCCc3sc(N)c(C#N)c32)n1)[C@@H]1CCCN1C [II-12]
30 | 500 nM | 2 nM | C[C@H](Oc1cc(Nc2ncco2)nc(-c2noc3c2CCC[C@@]32CCCc3sc(N)c(C#N)c32)n1)[C@@H]1CCCN1C [II-13]
31 | 960 nM | 3 nM | C[C@H](Oc1cc(Nc2cnccn2)nc(-c2noc3c2CCC[C@@]32CCCc3sc(N)c(C#N)c32)n1)[C@@H]1CCCN1C [II-14]
32 | 708 nM | 3 nM | C[C@H](Oc1cc(Nc2ccncn2)nc(-c2noc3c2CCC[C@@]32CCCc3sc(N)c(C#N)c32)n1)[C@@H]1CCCN1C [II-15]
33 |  | 2 nM | C[C@H](Oc1cc(Nc2ccccn2)nc(-c2noc3c2CCC[C@@]32CCCc3sc(N)c(C#N)c32)n1)[C@@H]1CCCN1C [II-16]
34 | 297 nM | 2 nM | C[C@H](Oc1cc(Nc2ncccn2)nc(-c2noc3c2CCC[C@@]32CCCc3sc(N)c(C#N)c32)n1)[C@@H]1CCCN1C [II-17]
35 | 1120 nM | 2 nM | C[C@H](Oc1cc(Nc2cccnn2)nc(-c2noc3c2CCC[C@@]32CCCc3sc(N)c(C#N)c32)n1)[C@@H]1CCCN1C [II-18]
